Assay results published in patent publication US10098878B2, “HIF-2α inhibitors for treating iron overload disorders” (The Board of Regents of the University of Texas System, priority 2014, dated 2018).
pEC50, pIC50: −log10 of the molar value. Like-named read-outs stand apart in the source and are kept apart here.

Assays:
[1] = target: T1, HIF-2α HIS TAG-PASB Domain (Homo sapiens, UniProt Q99814); test: HIF-2α Scintillation Proximity Assay (SPA); type: binding; conditions: 100 nM HIF-2α HIS TAG-PASB Domain
T1 construct: 100 nM HIF-2α HIS TAG-PASB Domain
T1 sequence (Q99814 240-350 limits assumed): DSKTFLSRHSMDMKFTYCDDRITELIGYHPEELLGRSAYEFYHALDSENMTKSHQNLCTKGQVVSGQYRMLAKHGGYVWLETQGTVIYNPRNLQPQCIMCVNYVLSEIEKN
Outline: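 IC50 values rest on percent inhibition, where the sample signal is scaled between high and low controls. Wells contain about 100 μL: compound dispensed as 2 μL of DMSO solution, 88 μL protein-probe mix and 10 μL of beads.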

786-0 cells = test: VEGF ELISA Assay; type: cell-based; conditions: Homo sapiens, VEGFA concentration in cell culture medium, read-out: VEGF ELISA EC50
Procedure: Each concentration had duplicated wells. About 20 hours later, medium was removed by suction and each well was supplied with 180 μL of growth medium. About 20 μl freshly-made 10× compound stocks were added to each well. […] The EC50 was calculated by GraphPad Prism using the dose-response-inhibition (four parameter) equation. The cell seeded plate was then subjected to CellTiter-Glo luminescence cell viability assay (Promega) by adding 50 μL of Celltiter Glo reagent into each well and shaking the plate for 8 minutes at 550 rpm (Thermomixer R, Eppendorf) then read luminescence signal in plate reader (3 second delay, 0.5 second/well integration time, Synergy 2 multi Detection Microplate reader) immediately.

786-O-Hif-Luc cells = test: Luciferase Assay; type: cell-based; conditions: 786-O-Hif-Luc cells, about 24 hours, read-out: Luciferase EC50
Procedure: A pool of infected cells were then selected against 2 μg/mL of puromycin (P8833, Sigma) for 10 days followed by limited dilution to select single clones.
Each concentration was tested in triplicate. After about 24 hours, luciferase activity was determined using ONE-Glo Luciferase Assay Reagent (E6110, Promega) following the manufacturer's recommended procedure. EC50 were calculated by using Dotmatics software.

[2] = 150 nM Compound 211 probe, read-out: SPA IC50
[3] = SPA IC50, 150 nM Compound 211 probe

| Structure (SMILES) | pIC50 [1, 2] | pEC50 (786-0 cells; 786-0, 786-0 cells) | pEC50 (786-O-Hif-Luc cells; 24 h) | pEC50 (786-0 cells; 786-0 cells) | pEC50 (786-O-Hif-Luc cells) | pIC50 [1, 3] |
| --- | --- | --- | --- | --- | --- | --- |
| CS(=O)(=O)c1ccc(Oc2cncc(Br)c2)c2c1[C@H](O)[C@H](F)[C@@H]2F [Compound 92, (1S,2S,3R)-4-((5-Bromopyridin-3-yl)oxy)-2,3-difluoro-7-(methylsulfonyl)-2,3-dihydro-1H-inden-1-ol] | 7.49 | 6.73 | 6.79 | – | – | – |
| CS(=O)(=O)c1ccc(Oc2cncc(F)c2)c2c1[C@H](O)C(F)(F)[C@@H]2F [Compound 93, (1S,3R)-2,2,3-trifluoro-4-((5-fluoropyridin-3-yl)oxy)-7-(methylsulfonyl)-2,3-dihydro-1H-inden-1-ol] | > 8.30 | 7.33 | 7.47 | – | – | – |
| CS(=O)(=O)c1ccc(Oc2cncc(Cl)c2)c2c1[C@H](O)C(F)(F)[C@@H]2F [Compound 95, (1S,3R)-4-((5-chloropyridin-3-yl)oxy)-2,2,3-trifluoro-7-(methylsulfonyl)-2,3-dihydro-1H-inden-1-ol] | 8.14 | 7.39 | 7.39 | – | – | – |
| CS(=O)(=O)c1ccc(Oc2cncc(C#N)c2)c2c1[C@H](O)[C@H](F)[C@@H]2F [Compound 97, 5-(((1S,2S,3R)-2,3-difluoro-1-hydroxy-7-(methylsulfonyl)-2,3-dihydro-1H-inden-4-yl)oxy)nicotinonitrile] | 7.13 | 6.79 | 6.76 | – | – | – |
| N#Cc1cncc(Oc2ccc(S(N)(=O)=O)c3c2[C@@H](F)C(F)(F)[C@H]3O)c1 [Compound 104, (1R,3S)-7-[(5-cyano-3-pyridyl)oxy]-1,2,2-trifluoro-3-hydroxy-indane-4-sulfonamide] | 7.62 | 6.87 | 6.90 | – | – | – |
| NS(=O)(=O)c1ccc(Oc2cncc(F)c2)c2c1[C@H](O)C(F)(F)[C@@H]2F [Compound 105, (1R,3S)-1,2,2-trifluoro-7-[(5-fluoro-3-pyridyl)oxy]-3-hydroxy-indane-4-sulfonamide] | 7.74 | 6.80 | 6.94 | – | – | – |
| CS(=O)(=O)c1ccc(Oc2cncc(C#N)c2)c2c1[C@H](O)C(F)(F)[C@@H]2F [Compound 106, 5-(((1S,3R)-2,2,3-trifluoro-1-hydroxy-7-(methylsulfonyl)-2,3-dihydro-1H-inden-4-yl)oxy)nicotinonitrile] | 7.33 | 7.02 | 7.06 | – | – | – |
| N#Cc1cncc(Oc2ccc(S(=O)(=O)CF)c3c2[C@@H](F)C(F)(F)[C@H]3O)c1 [Compound 108, 5-(((1S,3R)-2,2,3-trifluoro-7-((fluoromethyl)sulfonyl)-1-hydroxy-2,3-dihydro-1H-inden-4-yl)oxy)nicotinonitrile] | 8.17 | 6.91 | 7.38 | – | – | – |
| N#Cc1cc(F)cc(Oc2ccc3c(c2Br)[C@@H](O)C(F)(F)S3(=O)=O)c1 [Compound 111, (R)-3-((4-bromo-2,2-difluoro-3-hydroxy-1,1-dioxido-2,3-dihydrobenzo[b]thiophen-5-yl)oxy)-5-fluorobenzonitrile] | 8.14 | – | – | 7.19 | 7.64 | – |
| N#Cc1c(Oc2cc(F)cc(Cl)c2)ccc2c1C(O)CS2(=O)=O (stereo not drawn) [Compound 117, 5-(3-chloro-5-fluorophenoxy)-3-hydroxy-2,3-dihydrobenzo[b]thiophene-4-carbonitrile 1,1-dioxide] | 7.21 | – | – | 6.48 | 6.35 | – |
| O=S1(=O)c2ccc(Oc3cc(F)cc(Cl)c3)c(C(F)(F)F)c2C(O)C1(F)F (stereo not drawn) [Compound 124, 5-(3-Chloro-5-fluorophenoxy)-2,2-difluoro-3-hydroxy-4-(trifluoromethyl)-2,3-dihydrobenzo[b]thiophene 1,1-dioxide] | – | – | – | 7.05 | 7.12 | > 8.30 |
| O=S1(=O)c2ccc(Oc3cc(F)cc(Cl)c3)c(C(F)F)c2C(O)C1(F)F (stereo not drawn) [Compound 128, 5-(3-Chloro-5-fluorophenoxy)-4-(difluoromethyl)-2,2-difluoro-3-hydroxy-2,3-dihydrobenzo[b]thiophene 1,1-dioxide] | – | – | – | 7.54 | 7.77 | > 8.30 |
| NC1c2c(ccc(Oc3cc(F)cc(F)c3)c2C(F)F)S(=O)(=O)C1(F)F (stereo not drawn) [Compound 129, 3-Amino-4-(difluoromethyl)-5-(3,5-difluorophenoxy)-2,2-difluoro-2,3-dihydrobenzo[b]thiophene 1,1-dioxide] | > 8.30 | 7.06 | 7.17 | – | – | – |
| N#Cc1cc(F)cc(Oc2ccc3c(c2C(F)F)C(N)C(F)(F)S3(=O)=O)c1 (stereo not drawn) [Compound 136, 3-((3-Amino-4-(difluoromethyl)-2,2-difluoro-1,1-dioxido-2,3-dihydrobenzo[b]thiophen-5-yl)oxy)-5-fluorobenzonitrile] | > 8.30 | – | – | 6.70 | 6.96 | – |
| N#Cc1cc(F)cc(Oc2ccc3c(c2C(F)F)[C@@H](N)C(F)(F)S3(=O)=O)c1 [Compound 151, (R)-3-((3-Amino-4-(difluoromethyl)-2,2-difluoro-1,1-dioxido-2,3-dihydrobenzo[b]thiophen-5-yl)oxy)-5-fluorobenzonitrile] | 7.16 | – | – | 6.17 | 6.86 | – |
| O=S1(=O)c2ccc(Oc3cc(F)cc(Cl)c3)c(Br)c2[C@@H](O)C1(F)F [Compound 167, (3R)-4-Bromo-5-(3-chloro-5-fluoro-phenoxy)-2,2-difluoro-1,1-dioxo-3H-benzothiophen-3-ol] | – | – | – | 7.35 | 7.43 | > 8.30 |
| O=S1(=O)c2ccc(Oc3cncc(Cl)c3)c(Br)c2[C@@H](O)C1(F)F [Compound 185, (R)-4-bromo-5-((5-chloropyridin-3-yl)oxy)-2,2-difluoro-3-hydroxy-2,3-dihydrobenzo[b]thiophene 1,1-dioxide] | 6.91 | 6.75 | 7.01 | – | – | – |
| N#Cc1cncc(Oc2ccc3c(c2Br)[C@@H](O)C(F)(F)S3(=O)=O)c1 [Compound 188, (R)-5-((4-Bromo-2,2-difluoro-3-hydroxy-1,1-dioxido-2,3-dihydrobenzo[b]thiophen-5-yl)oxy)nicotinonitrile] | 6.94 | 6.49 | 7.02 | – | – | – |
| N#Cc1cc(F)cc(Oc2ccc3c(c2Cl)[C@@H](O)C(F)(F)S3(=O)=O)c1 [Compound 195, (R)-3-((4-chloro-2,2-difluoro-3-hydroxy-1,1-dioxido-2,3-dihydrobenzo[b]thiophen-5-yl)oxy)-5-fluorobenzonitrile] | 7.96 | 7.11 | 7.33 | – | – | – |
| CC1(O)c2c(ccc(Oc3cc(F)cc(F)c3)c2C#N)S(=O)(=O)C1(F)F (stereo not drawn) [Compound 210, 5-(3,5-Difluorophenoxy)-2,2-difluoro-3-hydroxy-3-methyl-2,3-dihydrobenzo[b]thiophene-4-carbonitrile 1,1-dioxide] | 7.39 | 7.74 | 7.66 | – | – | – |
